Here are results for seven molecules from the supplement of paper PMC11061612.

What all share (assay): Bliss excess, mean over the matrix (fraction); higher = more synergy
Assay [1] deals with LU-165 (Small Cell Lung Carcinoma). Put shortly:
(§1)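 Cell lines grown in DMEM/F12 or RPMI with 10% FBS were plated in 1536-well plates and held 24 hours at 37°C, 5% CO2 before 72 hours of exposure to two-drug dose matrices, with DMSO typically at 0.2%. CellTiter-Glo 2.0 luminescence gave viability, which was converted to inhibition. Vehicle wells were set to 0 and blank wells to 1. Combination Emax is the second-highest inhibition in the matrix, and Bliss excess is the observed combination effect minus the expected EA + EB − EA·EB, where EA and EB are the single-agent effects.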

For assay [2], the system named is GA-10 (Burkitt's Lymphoma). The method in brief:
as §1

Assay [3] deals with NB13 (Neuroblastoma). Put shortly:
as §1

Assay [4] has as its system SW620 (Colorectal Carcinoma). Put shortly: as §1
In assay [5] the test system is WM1552C (Melanoma). The method in brief: as §1
Assay [6] deals with KYSE-140 (Esophageal Squamous Cell Carcinoma). The method in brief:
as §1

Assay [7] concerns ESO26 (Esophageal Adenocarcinoma). Put shortly: as §1
Assay [8] deals with JVM-2 (B-Cell Non-Hodgkin's Lymphoma). Put shortly:
as §1

Assay [9] deals with G-402 (Other Solid Carcinomas). The method in brief: as §1
The subject of assay [10] is JHH-2 (Hepatocellular Carcinoma). Put shortly:
as §1

The test system of assay [11] is EW-7 (Ewing's Sarcoma). Put shortly:
as §1

In assay [12] the test system is 5637 (Bladder Carcinoma). The method in brief:
as §1

Assay [13] concerns SK-HEP-1 (Hepatocellular Carcinoma). The method in brief: as §1
The subject of assay [14] is DU-4475 (Breast Carcinoma). Put shortly: as §1
Assay [15] has as its system HCC1395 (Breast Carcinoma). Put shortly:
as §1

The subject of assay [16] is EB2 (Burkitt's Lymphoma). The method in brief:
as §1

Assay [17] deals with IM-9 (Non-Cancerous). Put shortly: as §1
Assay [18] concerns MHH-ES-1 (Ewing's Sarcoma). The method in brief:
as §1

Assay [19] concerns CESS (Acute Myeloid Leukemia). Put shortly:
as §1

In assay [20] the test system is A101D (Melanoma). The method in brief: as §1

As to `CS(=O)(=O)CCNCc1ccc(-c2ccc3ncnc(Nc4ccc(OCc5cccc(F)c5)c(Cl)c4)c3c2)o1` [Lapatinib] + C[C@@H](Oc1cc(-c2cnn(C3CCNCC3)c2)cnc1N)c1c(Cl)ccc(F)c1Cl [Crizotinib] (first compound max 10 µM, 7x7, partner max 10 µM), the Bliss excess in [1] was -0.0858; in assay [2], -0.0218; in [3], -0.0778; in assay [4] it was -0.0736; in assay [5] it was -0.0534; in assay [6], -0.0083. In addition, the Bliss excess is -0.0293 in [7]; -0.0131 in assay [8]; -0.0517 in assay [9]; -0.0831 in assay [10]; -0.0465 in assay [11]; -0.0285 in assay [12]. Besides, the Bliss excess in [13] was -0.0259; in assay [14], -0.0077; in [15] it was -0.0724; in [16] it was -0.0705; in assay [17] it was -0.0378; in [18] it was -0.0333. For the same molecule, the results for the Bliss excess in assay [19] and in [20] were -0.0826 and -0.0587, respectively.
Turning to `CCc1c2c(nc3ccc(O)cc13)-c1cc3c(c(=O)n1C2)COC(=O)[C@]3(O)CC` [SN-38] + CN(C)CCCOc1ccc(-c2ccc3ncc4c(c3c2)n(C2CCOCC2)c(=O)n4C)cn1 [AZD0156] (first compound max 0.3 µM, 7x7, partner max 1 µM), the Bliss excess in assay [1] is -0.028; in assay [2], 0.0494; in assay [3] it was 0.0313; in assay [4] it was 0.11; in [5] it was 0.0013; in assay [6], 0.0176. The Bliss excess was -0.0042 in assay [7]; 0.0156 in assay [8]; 0.003 in assay [9]; 0.0204 in [10]; 0.0647 in [11]; 0.0507 in [12]. In addition, the Bliss excess in [13] is 0.0105; in assay [14], 0.0129; in [15], -0.0024; in assay [16] it was 0.0238; in assay [17], 0.0891; in assay [18], 0.0449. Moreover, the values for the Bliss excess in assay [19] and in assay [20] were 0.0031 and 0.0006, respectively.
`CC1(C)CCC(CN2CCN(c3ccc(C(=O)NS(=O)(=O)c4ccc(NCC5CCOCC5)c([N+](=O)[O-])c4)c(Oc4cnc5[nH]ccc5c4)c3)CC2)=C(c2ccc(Cl)cc2)C1` [Venetoclax] + C=CCn1c(=O)c2cnc(Nc3ccc(N4CCN(C)CC4)cc3)nc2n1-c1cccc(C(C)(C)O)n1 [AZD1775] (first compound max 1 µM, partner max 1 µM): the Bliss excess in [1] was -0.0506; in [2] it was -0.0553; in assay [3], 0.078; in assay [4], -0.0536; in assay [5], 0.0354; in assay [6], -0.0037. Also, the Bliss excess in assay [7] was -0.0373; in [8], 0.0333; in assay [9] it was -0.0625; in assay [10] it was 0.0531; in assay [11], 0.0406; in [12], -0.0414. Moreover, the Bliss excess in assay [13] is -0.0252; in [14], -0.0262; in assay [15], 0.0202; in assay [16], 0.063; in assay [17] it was 0.0228; in assay [18], -0.001. Besides, the values for the Bliss excess in assay [19] and in [20] were -0.0236 and -0.0188, respectively.
Consider `Cn1cnc2c(F)c(Nc3ccc(Br)cc3Cl)c(C(=O)NOCCO)cc21` [Selumetinib] + CC(C)n1c(=O)n(C)c2cnc3cc(F)c(-c4ccc(OCCCN5CCCCC5)nc4)cc3c21 [AZD1390] (first compound max 10 µM, 7x7, partner max 0.3 µM), for which the Bliss excess is -0.03 in assay [1]; -0.0227 in assay [2]; -0.0532 in assay [3]; -0.0102 in assay [4]; -0.0102 in assay [5]; -0.0337 in assay [6]. Further, the Bliss excess was -0.0471 in assay [7]; 0.0102 in [8]; -0.0095 in [9]; -0.0357 in assay [10]; -0.0117 in [11]; -0.0226 in assay [12]. For the same molecule, the Bliss excess in assay [13] is -0.0043; in assay [14], -0.0112; in [15], -0.0327; in assay [16], -0.0532; in assay [17] it was -0.0603; in assay [18], -0.0328. In addition, the Bliss excess is -0.0355 in [19] and -0.0246 in assay [20].
Consider `NC1(C(=O)N[C@@H](CCO)c2ccc(Cl)cc2)CCN(c2ncnc3[nH]ccc23)CC1` [Capivasertib] + Cn1cnc2c(F)c(Nc3ccc(Br)cc3Cl)c(C(=O)NOCCO)cc21 [Selumetinib] (first compound max 10 µM, 7x7, partner max 10 µM), for which the Bliss excess in assay [1] is -0.0404; in assay [2], -0.0442; in [3] it was -0.0062; in assay [4], 0.0186; in assay [5], 0.036; in assay [6] it was -0.0003. The Bliss excess was 0.0818 in [7]; 0.0533 in [8]; 0.0126 in assay [9]; 0.016 in assay [10]; 0.0429 in assay [11]; -0.0187 in assay [12]. Besides, the Bliss excess was -0.0083 in [13]; 0.0066 in assay [14]; 0.033 in assay [15]; -0.0049 in assay [16]; -0.0169 in assay [17]; 0.0114 in assay [18]. Also, the Bliss excess in assay [19] is -0.0147; in assay [20], 0.0628.
In the case of `Cc1c2c(nn1C)CSCc1cc(n(C)n1)CSc1cc(c3ccccc3c1)OCCCc1c(C(=O)O)n(C)c3c-2c(Cl)ccc13` [AZD5991] + CC1(C)CCC(CN2CCN(c3ccc(C(=O)NS(=O)(=O)c4ccc(NCC5CCOCC5)c([N+](=O)[O-])c4)c(Oc4cnc5[nH]ccc5c4)c3)CC2)=C(c2ccc(Cl)cc2)C1 [Venetoclax] (first compound max 1 µM, 7x7, partner max 1 µM), the Bliss excess in [1] was -0.014; in assay [2], -0.0658; in assay [3] it was 0.0393; in assay [4], -0.037; in [5] it was -0.115; in assay [6], 0.0154. For the same molecule, the Bliss excess in assay [7] was -0.0209; in assay [8], 0.0109; in assay [9], -0.0461; in assay [10], -0.0156; in [11], 0.0249; in assay [12] it was -0.0474. For the same molecule, the Bliss excess is -0.0098 in assay [13]; 0.0375 in assay [14]; -0.019 in assay [15]; 0.0144 in assay [16]; 0.218 in [17]; 0.0733 in assay [18]. In addition, the Bliss excess in assay [19] amounted to 0.0276; in assay [20], 0.0076.
For the molecule `CC(=O)c1c(C)c2cnc(Nc3ccc(N4CCNCC4)cn3)nc2n(C2CCCC2)c1=O` [Palbociclib] + Cn1cnc2c(F)c(Nc3ccc(Br)cc3Cl)c(C(=O)NOCCO)cc21 [Selumetinib] (first compound max 10 µM, 7x7, partner max 10 µM), the Bliss excess in assay [1] was -0.0518; in assay [2] it was -0.0193; in [3] it was -0.0391; in assay [4], 0.0191; in assay [5], -0.0078; in assay [6], -0.0387. Also, the Bliss excess in [7] is 0.0104; in [8], 0.0271; in [9], 0.0399; in assay [10], 0.0347; in assay [11], 0.0709; in assay [12], -0.0288. Also, the Bliss excess in [13] was -0.114; in [14], -0.0446; in assay [15] it was -0.0529; in assay [16] it was -0.018; in assay [17], 0.0248; in [18], -0.0061. For the same molecule, the Bliss excess is 0.0202 in [19] and -0.0907 in [20].
